The target of one series is BRD3 BD1 WT (Homo sapiens, UniProt Q15059). In words: competitive AlphaLISA. The series is classed as binding.
The target of the next series is BRD4 BD2 WT (Homo sapiens, UniProt O60885). In words: competitive AlphaLISA. The series is classed as binding.
The target of the next series is BRDT BD2 WT (Homo sapiens, UniProt Q58F21). The series is described as follows: competitive AlphaLISA. The series is classed as binding.
Another series relates to GABA (non-selective). In words: CEREP ExpresSProfile. Particulars: 1 µM. The series is classed as binding.
A further series has as its target MT1 (ML1A) (h) (Homo sapiens, UniProt P48039). In words: CEREP ExpresSProfile. The series is classed as binding.
Another series deals with D2S (h) (Homo sapiens, UniProt P14416). In words: CEREP ExpresSProfile. Particulars: read-out: Mean % of control specific binding (±SD).
For a further series, the system named is sst (non-selective). The series is described as follows: CEREP ExpresSProfile. The series is classed as binding. The following applies: 1 µM.
For the next series, the target named is NTS1 (NT1) (h) (Homo sapiens, UniProt P30989). The series is described as follows: CEREP ExpresSProfile. Particulars: read-out: Mean % of control specific binding (±SD).
The next series relates to KV channel. In words: CEREP ExpresSProfile. The series is classed as binding. The following applies: 1 µM.
In another series the target is NK3 (h) (Homo sapiens, UniProt P29371). In words: CEREP ExpresSProfile. The following applies: read-out: Mean % of control specific binding (±SD).
A short description of series [1]: WT Cell Cytotoxicity (CellTiter-Glo). Particulars: human, HL-60 cells (BET-dependent AML cell line).
The target of another series is 5-HT2B (h) (Homo sapiens, UniProt P41595). The series is described as follows: CEREP ExpresSProfile. Particulars: read-out: Mean % of control specific binding (±SD).
The target in the next series is M3 (h) (Homo sapiens, UniProt P20309). The series is described as follows: CEREP ExpresSProfile. Particulars: read-out: Mean % of control specific binding (±SD).
A further series concerns the target CCK1 (CCKA) (h) (Homo sapiens, UniProt P32238). In words: CEREP ExpresSProfile. Particulars: read-out: Mean % of control specific binding (±SD).
In series [2] the test system is GFP-BRD4 L/V constructs with NF-κB-RE/luc2P reporter in HEK293T cells. In words: NF-κB luciferase assay. The following applies: 1 µM, inhibiting either individual BD of BRD4. The series is classed as cell-based, human. How it is done:
To provide additional functional insights into the individual roles of BD1 vs. BD2 beyond chromatin binding, a luciferase assay was developed to monitor the expression of NF-κB target genes, inspired by work of Zou et al.[45] […] This luciferase induction was maintained with L/V mutations (but not L/A), consistent again with more WT-like functionality of L/V compared to L/A (Fig. 9A).
12 – NF-κB Luciferase Assay
Luciferase experiments were performed in human HEK293T cells seeded in a 24-well plate at 100 000 cells in […]
pBABE NF-κB-RE/luc2P reporter plasmid. Cells were transfected using Lipofectamine™ LTX (Invitrogen) with PLUS™ reagent, with each well receiving 0.5 µg of each plasmid, 2.5 µl LTX and 0.5 µl PLUS reagent. The next day cells were treated with compounds, giving a final concentration of 1 µM compound and 0.01% DMSO. 6 hours later cells were washed with PBS, lysed with passive lysis buffer (Promega) and stored at -20°C.
Luciferase activity was measured suing the Promega luciferase assay. In a black 384-well plate 3µl of clarified lysate was mixed with 15µl luciferase assay reagent and after 15 minutes luminescence was measured in a Pherastar FS. […]
NMR spectra were recorded on a Bruker 500 Ultrashield or a Bruker Ascend 400. […] High Resolution Mass Spectra (HRMS) were recorded on a Bruker micrOTOF. […]

For a further series, the target named is GAL2 (h) (Homo sapiens, UniProt O43603). In words: CEREP ExpresSProfile. The following applies: read-out: Mean % of control specific binding (±SD).
The next series addresses CXCR2 (IL-8B) (h) (Homo sapiens, UniProt P25025). The series is described as follows: CEREP ExpresSProfile. The following applies: read-out: Mean % of control specific binding (±SD).
The next series concerns the target CCR1 (h) (Homo sapiens, UniProt P32246). In words: CEREP ExpresSProfile. Particulars: read-out: Mean % of control specific binding (±SD).
In the next series the target is H1 (h) (Homo sapiens, UniProt P35367). The series is described as follows: CEREP ExpresSProfile. The following applies: read-out: Mean % of control specific binding (±SD).
The target in the next series is M1 (h) (Homo sapiens, UniProt P11229). The series is described as follows: CEREP ExpresSProfile. Particulars: read-out: Mean % of control specific binding (±SD).
For the next series, the system named is Cl- channel (GABA-gated). The series is described as follows: CEREP ExpresSProfile. Particulars: 1 µM. The series is classed as binding.
The target of the next series is A2A (h) (Homo sapiens, UniProt P29274). The series is described as follows: CEREP ExpresSProfile. Particulars: read-out: Mean % of control specific binding (±SD).

The values below come from PMC5909127, “Optimization of a “bump-and-hole” approach to allele-selective BET bromodomain inhibition” (Chemical Science, 2018).

MT1 (ML1A) (h), sequence (P48039 whole entry): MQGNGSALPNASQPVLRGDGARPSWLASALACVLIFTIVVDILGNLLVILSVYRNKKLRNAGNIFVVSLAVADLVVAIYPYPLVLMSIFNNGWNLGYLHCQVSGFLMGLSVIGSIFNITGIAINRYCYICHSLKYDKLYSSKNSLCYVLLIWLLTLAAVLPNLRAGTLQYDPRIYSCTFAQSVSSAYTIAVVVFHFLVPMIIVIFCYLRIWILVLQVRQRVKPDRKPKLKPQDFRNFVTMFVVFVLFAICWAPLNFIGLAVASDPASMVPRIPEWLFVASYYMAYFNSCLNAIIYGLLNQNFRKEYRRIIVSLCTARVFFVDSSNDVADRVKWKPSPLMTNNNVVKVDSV
A2A (h), sequence (P29274 whole entry): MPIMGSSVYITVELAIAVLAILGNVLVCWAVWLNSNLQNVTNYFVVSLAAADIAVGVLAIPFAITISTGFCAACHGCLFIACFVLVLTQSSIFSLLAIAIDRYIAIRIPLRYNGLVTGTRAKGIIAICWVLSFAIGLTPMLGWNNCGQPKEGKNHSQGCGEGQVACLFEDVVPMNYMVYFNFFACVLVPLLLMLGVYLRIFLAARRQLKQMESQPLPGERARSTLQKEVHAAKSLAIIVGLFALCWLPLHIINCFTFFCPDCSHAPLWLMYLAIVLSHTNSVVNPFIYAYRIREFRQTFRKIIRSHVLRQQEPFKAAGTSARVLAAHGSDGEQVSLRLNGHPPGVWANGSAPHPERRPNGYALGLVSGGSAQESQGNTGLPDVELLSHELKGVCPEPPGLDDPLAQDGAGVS
5-HT2B (h), sequence (P41595 whole entry): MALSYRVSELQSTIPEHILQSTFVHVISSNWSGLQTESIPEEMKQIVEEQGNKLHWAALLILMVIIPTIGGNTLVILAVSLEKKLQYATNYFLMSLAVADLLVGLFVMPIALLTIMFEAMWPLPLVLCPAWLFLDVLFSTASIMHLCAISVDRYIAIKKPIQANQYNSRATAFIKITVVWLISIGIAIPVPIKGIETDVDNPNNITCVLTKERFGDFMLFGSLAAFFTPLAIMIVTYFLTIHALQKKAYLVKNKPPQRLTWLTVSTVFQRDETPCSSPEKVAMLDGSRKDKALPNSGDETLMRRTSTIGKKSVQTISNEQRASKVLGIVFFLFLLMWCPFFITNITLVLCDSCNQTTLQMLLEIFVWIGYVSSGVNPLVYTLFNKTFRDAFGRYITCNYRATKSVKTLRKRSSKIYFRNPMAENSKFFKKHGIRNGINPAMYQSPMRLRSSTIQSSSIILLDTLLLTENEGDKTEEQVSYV
H1 (h), sequence (P35367 whole entry): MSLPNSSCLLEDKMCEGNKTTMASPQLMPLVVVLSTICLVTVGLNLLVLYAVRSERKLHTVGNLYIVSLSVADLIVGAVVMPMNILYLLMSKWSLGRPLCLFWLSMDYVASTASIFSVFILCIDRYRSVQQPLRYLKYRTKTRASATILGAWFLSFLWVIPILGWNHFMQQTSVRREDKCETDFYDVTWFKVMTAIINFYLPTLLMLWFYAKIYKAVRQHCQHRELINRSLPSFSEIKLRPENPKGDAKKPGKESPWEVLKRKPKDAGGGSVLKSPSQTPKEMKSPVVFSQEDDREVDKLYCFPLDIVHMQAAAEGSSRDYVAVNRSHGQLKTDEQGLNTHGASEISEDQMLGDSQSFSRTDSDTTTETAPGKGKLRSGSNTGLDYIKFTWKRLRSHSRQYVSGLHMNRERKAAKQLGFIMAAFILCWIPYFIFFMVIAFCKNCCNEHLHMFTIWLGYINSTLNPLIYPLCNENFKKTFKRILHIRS
M1 (h), sequence (P11229 whole entry): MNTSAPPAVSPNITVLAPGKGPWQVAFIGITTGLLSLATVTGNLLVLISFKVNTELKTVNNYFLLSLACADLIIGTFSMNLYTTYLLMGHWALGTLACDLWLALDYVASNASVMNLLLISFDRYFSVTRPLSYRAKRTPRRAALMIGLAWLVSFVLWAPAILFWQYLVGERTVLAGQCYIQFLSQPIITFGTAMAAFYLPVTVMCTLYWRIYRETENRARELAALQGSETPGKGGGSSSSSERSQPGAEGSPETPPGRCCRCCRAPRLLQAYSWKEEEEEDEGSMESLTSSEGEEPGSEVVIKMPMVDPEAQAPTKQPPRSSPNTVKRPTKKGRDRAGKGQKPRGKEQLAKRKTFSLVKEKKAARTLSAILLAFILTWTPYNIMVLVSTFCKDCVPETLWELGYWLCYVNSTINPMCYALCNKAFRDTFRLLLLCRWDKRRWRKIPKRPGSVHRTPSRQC
CCR1 (h), sequence (P32246 whole entry): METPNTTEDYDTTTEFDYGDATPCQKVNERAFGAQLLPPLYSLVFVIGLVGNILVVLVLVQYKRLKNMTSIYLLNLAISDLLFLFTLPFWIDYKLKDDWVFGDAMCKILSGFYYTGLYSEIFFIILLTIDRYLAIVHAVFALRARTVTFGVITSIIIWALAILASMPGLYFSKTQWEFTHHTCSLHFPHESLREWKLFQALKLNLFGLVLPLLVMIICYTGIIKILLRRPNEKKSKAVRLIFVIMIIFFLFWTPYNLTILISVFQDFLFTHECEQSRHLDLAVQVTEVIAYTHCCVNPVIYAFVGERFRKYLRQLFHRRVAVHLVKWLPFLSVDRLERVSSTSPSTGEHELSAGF
BRD3 BD1 WT, sequence (Q15059 24-144): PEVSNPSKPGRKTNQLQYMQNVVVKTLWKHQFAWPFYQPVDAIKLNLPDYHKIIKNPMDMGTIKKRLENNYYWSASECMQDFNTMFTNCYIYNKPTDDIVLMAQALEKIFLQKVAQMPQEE
NTS1 (NT1) (h), sequence (P30989 whole entry): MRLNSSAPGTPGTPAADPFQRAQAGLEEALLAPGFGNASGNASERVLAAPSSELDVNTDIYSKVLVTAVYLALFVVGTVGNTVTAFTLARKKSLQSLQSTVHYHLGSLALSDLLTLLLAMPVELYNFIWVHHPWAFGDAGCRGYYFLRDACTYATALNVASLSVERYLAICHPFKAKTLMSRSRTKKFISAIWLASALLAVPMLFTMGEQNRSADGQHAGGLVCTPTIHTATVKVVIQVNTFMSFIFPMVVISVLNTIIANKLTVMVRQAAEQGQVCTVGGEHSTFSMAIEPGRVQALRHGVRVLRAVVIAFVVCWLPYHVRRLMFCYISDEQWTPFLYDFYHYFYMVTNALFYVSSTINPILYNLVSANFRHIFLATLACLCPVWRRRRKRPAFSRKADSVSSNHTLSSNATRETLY
D2S (h), sequence (P14416 1-414 isoform P14416-2): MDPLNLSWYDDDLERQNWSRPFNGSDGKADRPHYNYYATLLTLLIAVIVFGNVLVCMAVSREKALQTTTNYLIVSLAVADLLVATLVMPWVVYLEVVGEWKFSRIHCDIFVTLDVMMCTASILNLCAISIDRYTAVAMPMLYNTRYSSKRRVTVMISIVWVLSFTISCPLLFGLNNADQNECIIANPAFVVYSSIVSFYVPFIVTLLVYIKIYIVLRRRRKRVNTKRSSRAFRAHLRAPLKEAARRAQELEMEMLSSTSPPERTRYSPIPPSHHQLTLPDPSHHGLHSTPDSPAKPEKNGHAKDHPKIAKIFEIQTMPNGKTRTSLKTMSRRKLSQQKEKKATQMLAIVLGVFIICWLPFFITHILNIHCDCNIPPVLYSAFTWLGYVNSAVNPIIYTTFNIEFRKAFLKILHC
CCK1 (CCKA) (h), sequence (P32238 whole entry): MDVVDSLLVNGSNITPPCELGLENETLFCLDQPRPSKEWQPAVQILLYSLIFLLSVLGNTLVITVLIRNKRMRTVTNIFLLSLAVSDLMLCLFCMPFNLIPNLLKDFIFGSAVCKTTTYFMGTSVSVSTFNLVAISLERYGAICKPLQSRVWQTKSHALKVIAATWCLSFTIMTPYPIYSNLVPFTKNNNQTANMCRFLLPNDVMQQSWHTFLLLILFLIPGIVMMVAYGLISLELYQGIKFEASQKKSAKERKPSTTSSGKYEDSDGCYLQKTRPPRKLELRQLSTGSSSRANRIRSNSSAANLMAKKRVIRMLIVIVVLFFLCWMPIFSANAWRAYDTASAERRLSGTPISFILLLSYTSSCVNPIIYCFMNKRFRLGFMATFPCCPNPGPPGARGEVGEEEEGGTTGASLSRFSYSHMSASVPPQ
CXCR2 (IL-8B) (h), sequence (P25025 whole entry): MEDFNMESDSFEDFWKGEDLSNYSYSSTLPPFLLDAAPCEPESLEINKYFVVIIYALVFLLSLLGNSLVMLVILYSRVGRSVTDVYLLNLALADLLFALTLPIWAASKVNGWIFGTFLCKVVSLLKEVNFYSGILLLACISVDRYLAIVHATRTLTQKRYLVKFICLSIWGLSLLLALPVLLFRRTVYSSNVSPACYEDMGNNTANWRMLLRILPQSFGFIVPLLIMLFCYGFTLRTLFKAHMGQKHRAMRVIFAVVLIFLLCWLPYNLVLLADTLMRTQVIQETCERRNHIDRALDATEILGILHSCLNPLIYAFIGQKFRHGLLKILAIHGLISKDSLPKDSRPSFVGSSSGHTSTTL
M3 (h), sequence (P20309 whole entry): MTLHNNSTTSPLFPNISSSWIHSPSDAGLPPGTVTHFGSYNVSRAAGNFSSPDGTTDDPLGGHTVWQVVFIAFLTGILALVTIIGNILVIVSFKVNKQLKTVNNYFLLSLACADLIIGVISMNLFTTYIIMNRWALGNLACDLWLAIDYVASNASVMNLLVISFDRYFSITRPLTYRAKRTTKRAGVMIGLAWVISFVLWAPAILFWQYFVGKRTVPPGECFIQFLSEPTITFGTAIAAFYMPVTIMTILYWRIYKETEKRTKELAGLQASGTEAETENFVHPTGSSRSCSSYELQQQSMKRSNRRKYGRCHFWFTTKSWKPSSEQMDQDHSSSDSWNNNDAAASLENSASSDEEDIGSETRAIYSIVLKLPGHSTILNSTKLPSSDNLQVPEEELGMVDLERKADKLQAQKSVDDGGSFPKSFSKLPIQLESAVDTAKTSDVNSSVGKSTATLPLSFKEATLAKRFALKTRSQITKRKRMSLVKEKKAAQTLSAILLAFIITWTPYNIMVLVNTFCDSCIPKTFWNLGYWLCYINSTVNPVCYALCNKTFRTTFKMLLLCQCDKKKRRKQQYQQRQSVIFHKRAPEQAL
Description for CCK1 (CCKA) (h): (§1) Receptor Reference Compound Mean % of control specific
Receptor & Ion-Channel Screening
CEREP ExpresSProfile panel
Description for CXCR2 (IL-8B) (h): as §1
Receptor & Ion-Channel Screening
CEREP ExpresSProfile panel
Description for GAL2 (h): as §1
Receptor & Ion-Channel Screening
CEREP ExpresSProfile panel
Description for KV channel: as §1
Receptor & Ion-Channel Screening
CEREP ExpresSProfile panel
Description for NK3 (h): as §1
Receptor & Ion-Channel Screening
CEREP ExpresSProfile panel

`CC[C@@H](C(=O)OC)[C@@H]1N=C(c2ccc(Cl)cc2)c2ccc(OC)cc2-n2c(C)nnc21` (racemic) [Compound 8]: the IC50 at BRD3 BD1 WT was 2.51 µM; on BRD4 BD2 WT, 3.16 µM; at BRDT BD2 WT it was 3.98 µM.

With `COC(=O)[C@H](C)[C@@H]1N=C(c2ccc(Cl)cc2)c2ccc(OC)cc2-n2c(C)nnc21` [(2R,3S)-7], the “Mean % of control specific binding (±SD)” value was 110 (1) % with GABA (non-selective), 108 (6) % with sst (non-selective), 100 (0) % with KV channel and 98 (4) % in the series with Cl- channel (GABA-gated). The molecule further came in with an inhibition at 1 µM against MT1 (ML1A) (h) of 77%. In addition, the remaining activity at 1 µM on MT1 (ML1A) (h) (read-out: Mean % of control specific binding (±SD)) came out at 23%; on D2S (h), 95%; on NTS1 (NT1) (h) it was 106%; at NK3 (h), 99%; on 5-HT2B (h), 109%; on M3 (h), 101%. For the same molecule, the remaining activity at 1 µM came to 90% on CCK1 (CCKA) (h); 96% on GAL2 (h); 96% on CXCR2 (IL-8B) (h); 102% at CCR1 (h); 108% on H1 (h); 104% on M1 (h). The remaining activity at 1 µM on A2A (h) was determined as 99%. The molecule further returned a CC50 at 48 h in series [1] of over 5.01 µM. In addition, the “effect on NF-κB signalling” value in series [2] was “strongly impacted on NF-κB signalling”.
